According to US12358915B2, “METTL3 inhibitory compounds” (STORM THERAPEUTICS LTD., priority 2019, dated 2025):
Where two headings read alike, the source gives them in different places.

Experiments:
METTL3/14 = target: T1, METTL3/14 (Homo sapiens, UniProt Q86U44); assay: METTL3/14 methyltransferase assay (METTL3_14 RFMS, RapidFire mass spectrometry); assay type: biochemical; conditions: read-out: METTL3_14 RFMS IC50;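 note: recombinant His-tagged METTL3 with FLAG-tagged METTL14 from baculovirus, SAH product quantified by mass spectrometry against isotope-labelled internal standards, 60 min at room temperature, scaled between no-RNA and DMSO-only wells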
T1 construct: The enzyme used was full-length his-tagged METTL3; His; made in house

MOLM-13 cells = assay: MOLM13 CTG - analysis of cell proliferation (Cell Titre Glo); assay type: cell-based; conditions: Homo sapiens, geometric mean, read-out: CTG MOLM13 cells IC50 GEOMEAN
Procedure: MOLM-13 or MOLM-14 cells were plated, in suspension, in 24 well tissue culture plates at final concentration of 200,000/ml, with or without 50 ng/ml IFNγ. […] Cells were incubated for 4 days at 37° C. at which point 600 μl of cell suspension was removed for Mass spectrometry analysis of m6A. 600 μl of fresh media containing the appropriate concentration of METTL3 inhibitor/IFNγ was added to remaining cell suspensions. Cells where then cultured for a further 7 days, cell suspension was sampled for analysis of proliferation and Cell surface markers periodically.
At regular time points (4, 5, 6 &7) days cells were mixed to maintain a homogenous cell suspension. 25 μl of this cell suspension was removed and added to a white 384 well plate, 25 μl of Cell Titre Glo reagent (Promega) was added, and incubated for 10 mins at room temperature before measurement of luminescence intensity, as per the manufacturers instructions.

Caov-3 cells = assay: Caov3 CTG assay - proliferation assay; assay type: cell-based; conditions: Homo sapiens, 120 hours treatment, 30 μM top concentration, CellTiter-Glo, geometric mean, read-out: CTG Caov3 cells IC50 GEOMEAN
Procedure: Upon treatment, Coav-3 cells were incubated for 10 min at RT with the CellTiter-Glo reagent (G7571, Promega). Measurement of the luminescence signal was performed on a microplate reader (Ensight, PerkinElmer).

[1] = 5 nM METTL3/14, 0.2 μM RNA substrate, 0.5 μM SAM, lower limit of the assay IC50=5 nM, Compounds 266-351
[2] = 5 nM METTL3/14, 0.2 μM RNA substrate, 0.5 μM SAM, lower limit of the assay IC50=5 nM, Compounds 63-265

T1 sequence (Q86U44 whole entry): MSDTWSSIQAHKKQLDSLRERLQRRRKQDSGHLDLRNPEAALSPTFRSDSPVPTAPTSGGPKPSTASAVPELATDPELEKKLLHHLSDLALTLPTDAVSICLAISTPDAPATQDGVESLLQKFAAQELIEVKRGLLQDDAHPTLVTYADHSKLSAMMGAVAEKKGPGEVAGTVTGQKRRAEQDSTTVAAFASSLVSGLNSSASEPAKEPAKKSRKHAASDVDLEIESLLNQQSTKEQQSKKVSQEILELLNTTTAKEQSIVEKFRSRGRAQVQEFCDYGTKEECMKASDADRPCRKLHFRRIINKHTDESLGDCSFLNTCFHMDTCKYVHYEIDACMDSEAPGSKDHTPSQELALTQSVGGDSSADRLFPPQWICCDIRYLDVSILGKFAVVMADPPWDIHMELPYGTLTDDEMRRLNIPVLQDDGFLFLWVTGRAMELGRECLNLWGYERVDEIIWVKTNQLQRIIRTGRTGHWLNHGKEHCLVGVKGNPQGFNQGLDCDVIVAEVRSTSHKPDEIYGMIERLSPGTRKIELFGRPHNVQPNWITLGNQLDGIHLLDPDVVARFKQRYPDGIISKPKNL
T1 sequence (Q9HCE5 whole entry partner): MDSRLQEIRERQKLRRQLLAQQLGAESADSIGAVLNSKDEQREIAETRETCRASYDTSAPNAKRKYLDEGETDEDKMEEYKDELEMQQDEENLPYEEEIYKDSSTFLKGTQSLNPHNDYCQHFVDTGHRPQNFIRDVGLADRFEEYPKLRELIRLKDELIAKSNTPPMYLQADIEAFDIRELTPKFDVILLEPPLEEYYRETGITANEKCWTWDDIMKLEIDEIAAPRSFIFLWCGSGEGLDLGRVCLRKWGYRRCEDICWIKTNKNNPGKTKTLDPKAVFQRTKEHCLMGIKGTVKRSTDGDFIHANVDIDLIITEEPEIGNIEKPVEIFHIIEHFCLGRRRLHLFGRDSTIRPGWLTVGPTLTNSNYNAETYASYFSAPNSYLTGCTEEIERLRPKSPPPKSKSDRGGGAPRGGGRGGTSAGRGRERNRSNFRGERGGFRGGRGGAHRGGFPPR

IC50 (METTL3/14) | IC50 (MOLM-13 cells) | IC50 (METTL3/14; [1]) | IC50 (METTL3/14; [2]) | Compound | IC50 (Caov-3 cells)
≤ 0.00363 µM | 0.431 µM | – | – | COc1cc(-c2cn(Cc3cn4cc(CNCC5CCC5)ccc4n3)nn2)c2cn[nH]c2c1 [Example 270, N-(cyclobutylmethyl)-1-[2-[[4-(6-methoxy-1H-indazol-4-yl)triazol-1-yl]methyl]imidazo[1,2-a]pyridin-6-yl]methanamine] | 0.161 µM
– | 0.657 µM | 0.0061 µM | – | O=C(NCc1cn2cc(CNCC34CC(F)(C3)C4)ccc2n1)c1cc(=O)n2ccccc2n1 [Compound 276, N-[[6-[[(3-fluoro-1-bicyclo[1.1.1]pentanyl)methylamino]methyl]imidazo[1,2-a]pyridin-2-yl]methyl]-4-oxo-pyrido[1,2-a]pyrimidine-2-carboxamide] | 0.248 µM
– | 3.07 µM | 0.0101 µM | – | c1cc(-c2cn(Cc3cn4cc(CNCC5CCC5)ccc4n3)cn2)c2cn[nH]c2c1 [Example 339, N-(cyclobutylmethyl)-1-[2-[[4-(1H-indazol-4-yl)imidazol-1-yl]methyl]imidazo[1,2-a]pyridin-6-yl]methanamine] | 0.849 µM
≤ 0.00435 µM | 0.629 µM | – | – | Clc1cc(-c2cn(Cc3cn4cc(CNCC5CCC5)ccc4n3)nn2)c2cn[nH]c2c1 [Example 302, 1-[2-[[4-(6-chloro-1H-indazol-4-yl)triazol-1-yl]methyl]imidazo[1,2-a]pyridin-6-yl]-N-(cyclobutylmethyl)methanamine] | 0.211 µM
– | 1.82 µM | – | 0.00625 µM | O=C(NCc1cn2cc(CNCC3CCC3)ccc2n1)c1cc(=O)n2ccccc2n1 [Example 212, N-[[6-[(cyclobutylmethylamino)methyl]imidazo[1,2-a]pyridin-2-yl]methyl]-4-oxo-pyrido[1,2-a]pyrimidine-2-carboxamide] | 0.32 µM
– | 0.93 µM | 0.0061 µM | – | COc1cc(-c2cn(Cc3cn4cc(CNCC5(OC)CCC5)ccc4n3)nn2)c2cn[nH]c2c1 [Example 343, N-[(1-methoxycyclobutyl)methyl]-1-[2-[[4-(6-methoxy-1H-indazol-4-yl)triazol-1-yl]methyl]imidazo[1,2-a]pyridin-6-yl]methanamine] | 0.554 µM
– | 1.17 µM | 0.0061 µM | – | COc1ccc2[nH]ncc2c1-c1cn(Cc2cn3cc(CNCC4CCC4)ccc3n2)nn1 [Example 271, N-(cyclobutylmethyl)-1-[2-[[4-(5-methoxy-1H-indazol-4-yl)triazol-1-yl]methyl]imidazo[1,2-a]pyridin-6-yl]methanamine] | 0.558 µM
– | 5.17 µM | 0.0163 µM | – | FC1(F)CC(CNCc2ccc3nc(Cc4cn(-c5cccc6[nH]ncc56)nn4)cn3c2)C1 [Example 337, [(3,3-difluorocyclobutyl)methyl][(2-{[1-(1H-indazol-4-yl)-1H-1,2,3-triazol-4-yl]methyl}imidazo[1,2-a]pyridin-6-yl)methyl]amine] | 3.21 µM
– | 3.68 µM | 0.00672 µM | – | Fc1ccc(-c2cn(Cc3cn4cc(CNCC5CCCCC5)ccc4n3)nn2)c2cn[nH]c12 [Example 307, N-(cyclohexylmethyl)-1-[2-[[4-(7-fluoro-1H-indazol-4-yl)triazol-1-yl]methyl]imidazo[1,2-a]pyridin-6-yl]methanamine] | 1.77 µM
– | 1.19 µM | 0.00749 µM | – | N#Cc1cc(-c2cn(Cc3cn4cc(CNCC5CCC5)ccc4n3)nn2)c2cn[nH]c2c1 [Example 338, 4-{1-[(6-{[(cyclobutylmethyl)amino]methyl}imidazo[1,2-a]pyridin-2-yl)methyl]-1H-1,2,3-triazol-4-yl}-1H-indazole-6-carbonitrile] | 1.11 µM
– | 2.8 µM | – | 0.244 µM | CN(Cc1ccc2nc(CNC(=O)c3cc(=O)n4ccccc4n3)cn2c1)CC1CCCCC1 [Compound 114, N-[(6-{[(cyclohexyl-methyl)(methyl)amino]methyl}imidazo [1,2-a]pyridin-2-yl)methyl]-4-oxo-4H-pyrido [1,2-a]pyrimidine-2-carboxamide] | –
– | 5.02 µM | – | 0.0203 µM | O=C(NCc1cn2cc(CNCC3CCCC3)ccc2n1)c1cc(=O)n2ccccc2n1 [Compound 210, N-[(6-{[(cyclopentyl-methyl)amino]methyl}imidazo [1,2-a]pyridin-2-yl)methyl]-4-oxo-4H-pyrido [1,2-a]pyrimidine-2-carboxamide] | –
– | 3.68 µM | 0.019 µM | – | c1cc2nc(Cn3cc(-c4cc(N5CCOCC5)cc5[nH]ncc45)nn3)cn2cc1CNCC1CCC1 [Example 311, N-(cyclobutylmethyl)-1-[2-[[4-(6-morpholino-1H-indazol-4-yl)triazol-1-yl]methyl]imidazo[1,2-a]pyridin-6-yl]methanamine] | –
– | 7.4 µM | 0.0115 µM | – | O=C(NCc1cn2cc(CNCC3(O)CCCC3)ccc2n1)c1cc(=O)n2ccccc2n1 [Compound 284, N-[[6-[[(1-hydroxycyclopentyl)methylamino]methyl]imidazo[1,2-a]pyridin-2-yl]methyl]-4-oxo-pyrido[1,2-a]pyrimidine-2-carboxamide] | –
– | 10.2 µM | – | 0.0379 µM | CC1(F)CCN(Cc2ccc3nc(CNC(=O)c4cc(=O)n5ccccc5n4)cn3c2)CC1 [Compound 207, N-({6-[(4-fluoro-4-methylpiperidin-1-yl)methyl]imidazo[1,2-a]pyridin-2-yl}methyl)-4-oxo-4H-pyrido [1,2-a]pyrimidine-2-carboxamide] | –
– | 1.62 µM | 0.00578 µM | – | c1cc(-c2cn(Cc3cn4cc(CNCC5CCC5)ccc4n3)nn2)c2cn[nH]c2c1 [Example 327, N-(cyclobutylmethyl)-1-[2-[[4-(1H-indazol-4-yl)triazol-1-yl]methyl]imidazo[1,2-a]pyridin-6-yl]methanamine] | 0.572 µM
– | 9.02 µM | 0.0277 µM | – | COC1(CNCc2ccc3nc(CNC(=O)c4cc(=O)n5ccccc5n4)cn3c2)CCC1 [Compound 273, N-[[6-[[(1-methoxycyclobutyl)methylamino]methyl]imidazo[1,2-a]pyridin-2-yl]methyl]-4-oxo-pyrido[1,2-a]pyrimidine-2-carboxamide] | –
– | 1.39 µM | 0.00805 µM | – | COc1cc(-c2cn(Cc3cn4cc(CNCC5(O)CCC5)ccc4n3)nn2)c2cn[nH]c2c1 [Example 269, 1-[[[2-[[4-(6-methoxy-1H-indazol-4-yl)triazol-1-yl]methyl]imidazo[1,2-a]pyridin-6-yl]methylamino]methyl]cyclobutanol] | 0.692 µM
10.1 µM | ≥ 30 µM | – | – | CC(C)(C)CNCc1ccc2nc(Cn3cc(-c4ccc5[nH]ncc5c4)nn3)cn2c1 [Example 254, (2,2-dimethylpropyl)[(2-{[4-(1H-indazol-5-yl)-1H-1,2,3-triazol-1-yl]methyl}imidazo[1,2-a]pyridin-6-yl)methyl]amine] | –
– | 8.36 µM | 0.0193 µM | – | Clc1ccc(-c2cn(Cc3cn4cc(CNCC5CCC5)ccc4n3)nn2)c2cn[nH]c12 [Example 315, 1-[2-[[4-(7-chloro-1H-indazol-4-yl)triazol-1-yl]methyl]imidazo[1,2-a]pyridin-6-yl]-N-(cyclobutylmethyl)methanamine] | –
– | ≥ 30 µM | 0.0276 µM | – | O=C(NCc1cn2cc(CNCC3CC4(CC4)C3)ccc2n1)c1cc(=O)n2ccccc2n1 [Compound 278, 4-oxo-N-[[6-[(spiro[2.3]hexan-5-ylmethylamino)methyl]imidazo[1,2-a]pyridin-2-yl]methyl]pyrido[1,2-a]pyrimidine-2-carboxamide] | –
– | 12.9 µM | – | 0.742 µM | O=C(NCc1ccc2nc(CNC(=O)c3cc(=O)n4ccccc4n3)cn2c1)c1ccccc1 [Compound 237, 4-oxo-N-({6-[(phenylformamido)methyl]imidazo[1,2-a]pyridin-2-yl}methyl)-4H-pyrido[1,2-a]pyrimidine-2-carboxamide] | –
– | 9.77 µM | – | 0.0324 µM | CC(C)(C)C(C)(C)NCc1ccc2nc(CNC(=O)c3cc(=O)n4ccccc4n3)cn2c1 [Compound 195, 4-oxo-N-[(6-{[(2,3,3-trimethylbutan-2-yl)amino]methyl}imidazo [1,2-a]pyridin-2-yl)methyl]-4H-pyrido[1,2-a]pyrimidine-2-carboxamide] | –
– | 17.9 µM | 0.122 µM | – | O=C1CC(c2ccc3nc(CNC(=O)c4cc(=O)n5ccccc5n4)cn3c2)NC(C2CCCCC2)C1 (mixture of isomers) [Example 334, N-[[6-(6-cyclohexyl-4-oxo-2-piperidyl)imidazo[1,2-a]pyridin-2-yl]methyl]-4-oxo-pyrido[1,2-a]pyrimidine-2-carboxamide] | –
– | ≥ 30 µM | – | 0.122 µM | CN(Cc1ccccc1)Cc1ccc2nc(CNC(=O)c3cc(=O)n4ccccc4n3)cn2c1 [Compound 74, N-[(6-{[benzyl (methyl)amino]methyl}imidazo [1,2-a]pyridin-2-yl)methyl]-4-oxo-4H-pyrido [1,2-a]pyrimidine-2-carboxamide] | –
– | ≥ 30 µM | 0.202 µM | – | N#CCC(NCC1CCC1)c1ccc2nc(CNC(=O)c3cc(=O)n4ccccc4n3)cn2c1 (stereo not shown) [Example 330, N-[[6-[2-cyano-1-(cyclobutylmethylamino)ethyl]imidazo[1,2-a]pyridin-2-yl]methyl]-4-oxo-pyrido[1,2-a]pyrimidine-2-carboxamide] | –
